Test results reported in patent US20120270250A1, “TEST SYSTEM FOR MEASURING MEST ACTIVITY AS WELL AS METHODS AND USES INVOLVING THE SAME” (SANOFI, priority 2009, published 2012).

Legend:
MEST T579B = target: T1, MEST T579B (Homo sapiens, UniProt Q5EB52); test: Glycerol 3-phosphate acyl transferase activity, MEST T579B-recombinant Sf9 crude membranes; assay type: biochemical
T1 construct: T579B=amino acids 2-335 and T580B=amino acids 11-335; made in house; host or cells: Sf9 insect cells (baculovirus, pVL1392); crude total membranes
T1 sequence (Q5EB52 2-335): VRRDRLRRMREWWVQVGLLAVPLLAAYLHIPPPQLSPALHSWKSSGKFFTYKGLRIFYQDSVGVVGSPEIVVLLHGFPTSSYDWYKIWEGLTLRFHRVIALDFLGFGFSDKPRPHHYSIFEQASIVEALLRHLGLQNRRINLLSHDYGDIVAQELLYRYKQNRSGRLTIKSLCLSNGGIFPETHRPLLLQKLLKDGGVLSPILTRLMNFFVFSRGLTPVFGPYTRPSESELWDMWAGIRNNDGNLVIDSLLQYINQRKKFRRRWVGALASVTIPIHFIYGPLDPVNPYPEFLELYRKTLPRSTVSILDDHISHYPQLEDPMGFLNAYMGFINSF
Method: (§1) The assay for determining glycerol 3-phosphate acyl transferase is based on the following principle:
(§2) Glycerol 3-phosphate acyl transferase activity was determined as incorporation of palmitate with palmitoyl CoA as acyl donor and radio-labeled [^3H] glycerol 3-phosphate as acyl acceptor, to obtain radio-labeled palmitoyl glycerol 3-phosphate. Radioactive-labeled product palmitoyl glycerol 3-phosphate was separated from the radio-labeled substrate by addition of a scintillator based on organic solvent in order to determine radioactivity in a suitable counter. After separation of phases, only radio-label in the organic solvent phase, which is saturated with scintillator, is detected, i.e. hydrophobic and amphiphilic substances as radio-labeled palmitoyl glycerol 3-phosphate. Hydrophilic radio-labeled glycerol phosphate, which has not been acylated, remains in the aqueous phase and is, therefore, not counted by the scintillation counter. The low amount of “cross-irradiation” from the aqueous phase to the organic phase was corrected by substracting a blank value of a control (containing all reaction components apart from MEST protein) for all MEST reactions.
(§3) Membranes of insect cells expressing human recombinant MEST protein (as below) in homogenization buffer adjusted to the desired concentration (determination of protein content by BioRad assay)
(§4) 10 μl enzyme solution were incubated with 50 μl reaction solution at 25° C. for 60 min. Incubation was carried out in an Eppendorf Thermomixer comfort with gentle agitation (450 min^−1), wherein the openings of the plate were sealed by a protection film (Whatman Uni Seal 7704-0009). The reaction was terminated by addition of 5 μl 200 mM glycerol 3-phosphate and 200 μl scintillation liquid (beta-plate, #1205-440, Perkin Elmer) and incubation under agitation as above at 25° C. for 15 min. After at least 12 hours of incubation at 25° C. without agitation for separation of the phases, radioactivity (in dpm) was measured in a scintillation counter (Wallac 1450 micro beta).
(§5) The enzyme solution (total membranes of Sf9 insect cells) was produced as follows: Sf9 insect cells were pelleted by centrifugation and frozen in aliquots (about 7-9 g). When needed, pelleted Sf9 insect cells were quickly thawed in a 37° C. water bath and kept on ice until further processing. Thereafter, they were transferred into a 50 ml glass homogenizer containing 10 ml homogenization buffer and, additionally, 0.5 mM DTT for preparing a suspension. Cells were homogenized in a teflon-in-glass homogenizer (10×1500/min at 4° C.). The homogenate was transferred into JA25.5 centrifugation tubes (Beckman #363647), diluted with 10 ml homogenization buffer plus DTT and pelleted by centrifugation (500 g, 5 min, 4° C., refrigerated centrifuge Beckman Avanti JA25I). The supernatant was transferred into ultracentrifugation tubes (Beckman #355618) and centrifugated (100000 g, 60 min, 4° C., Beckman Optima LE-80K). The supernatant was completely removed. The pellet was two times carefully washed with homogenization buffer and then resuspended in homogenization buffer. Enzyme solution was aliquoted, frozen in liquid nitrogen and stored at −80° C.
The experiment was carried out as detailed above. Particularly, crude membranes from insect cells (SF9) transfected to express MEST (T579B) were produced and assayed for glycerol 3-phosphate acyltransferase activity (dpm/test) in the presence of A003564556 or S987600. […]
The experiment was carried out as detailed above. Particularly, crude membranes of non-transfected insect cells (SF9) or insect cells (SF9) transfected to express either MEST (T579B) or GPAT (GPAT1, -3 or -4) were produced and assayed in the presence of 1 mM N-Ethylmaleimide (NEM) for 1 h or at 41° C. for 10 min.

MEST T580B = target: T2, MEST T580B (Homo sapiens, UniProt Q5EB52); test: Glycerol 3-phosphate acyl transferase activity, MEST T580B-recombinant Sf9 crude membranes; assay type: biochemical; settings: 1 mM NEM for 1 h
T2 construct: T579B=amino acids 2-335 and T580B=amino acids 11-335; made in house; host or cells: Sf9 insect cells (baculovirus, pVL1392); crude total membranes
T2 sequence (Q5EB52 11-335): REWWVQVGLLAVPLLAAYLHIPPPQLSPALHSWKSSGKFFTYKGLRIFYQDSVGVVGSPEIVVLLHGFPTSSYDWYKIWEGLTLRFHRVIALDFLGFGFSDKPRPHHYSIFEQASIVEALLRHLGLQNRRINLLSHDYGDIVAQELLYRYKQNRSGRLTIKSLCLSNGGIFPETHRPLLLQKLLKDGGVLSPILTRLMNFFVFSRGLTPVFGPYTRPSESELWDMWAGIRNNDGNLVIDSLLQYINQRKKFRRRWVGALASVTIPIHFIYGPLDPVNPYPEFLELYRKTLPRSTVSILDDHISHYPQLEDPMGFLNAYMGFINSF
Method: as §1, §2, §3, §4
as §5, with “The supernatant was transferred into ultracentrifugation tubes (Beckman #355618) and centrifugated (100000 g, 60 min, 4° C., Beckman Optima LE-80K). The supernatant was completely removed. The pellet was two times carefully washed with homogenization buffer and then resuspended in homogenization buffer. Enzyme solution was aliquoted, frozen in liquid nitrogen and stored at −80° C.” left out

[1] = system: endogenous insect cell glycerol 3-phosphate acyltransferase activities; test: Glycerol 3-phosphate acyl transferase activity, non-transfected Sf9 crude membranes; assay type: biochemical, Sf9 insect cells; settings: 1 mM NEM for 1 h
Method: as §1, §2, §4
as §5, with “The pellet was two times carefully washed with homogenization buffer and then resuspended in homogenization buffer. Enzyme solution was aliquoted, frozen in liquid nitrogen and stored at −80° C.” left out

[2] = inhibitor 0.3 μM, MEST T579B 10 μg/Test
[3] = inhibitor 1 μM, MEST T579B 10 μg/Test
[4] = inhibitor 3 μM, MEST T579B 10 μg/Test
[5] = inhibitor 10 μM, MEST T579B 10 μg/Test
[6] = inhibitor 30 μM, MEST T579B 10 μg/Test
[7] = inhibitor 100 μM, MEST T579B 10 μg/Test
[8] = inhibitor 200 μM, MEST T579B 10 μg/Test
[9] = 1 mM NEM for 1 h, 10 μg Protein/Test
[10] = 1 mM NEM for 1 h, 30 μg Protein/Test

SMILES: O=C(O)CCCCCCCCCCCNC(=O)NC12CC3CC(CC(C3)C1)C2 [A003564556]
- Inhibition of MEST activity (in words) (MEST T579B; MEST T579B crude membranes): partially inhibited
- Activity (dpm/Test) (MEST T579B; [2]): 905 dpm/Test
- inhibition at 0.3 µM (MEST T579B; [2]): -6%
- Activity (dpm/Test) (MEST T579B; [3]): 1011 dpm/Test
- inhibition at 1 µM (MEST T579B; [3]): -19%
- Activity (dpm/Test) (MEST T579B; [4]): 881 dpm/Test
- inhibition at 3 µM (MEST T579B; [4]): -4%
- Activity (dpm/Test) (MEST T579B; [5]): 845 dpm/Test
- inhibition at 10 µM (MEST T579B; [5]): 1%
- Activity (dpm/Test) (MEST T579B; [6]): 779 dpm/Test
- inhibition at 30 µM (MEST T579B; [6]): 8%
- Activity (dpm/Test) (MEST T579B; [7]): 557 dpm/Test
- inhibition at 100 µM (MEST T579B; [7]): 34%
- Activity (dpm/Test) (MEST T579B; [8]): 458 dpm/Test
- inhibition at 200 µM (MEST T579B; [8]): 48%
- IC50 (MEST T579B; partial inhibition of glycerol 3-phosphate acyl transferase activity): ~200 µM

SMILES: CCN1C(=O)C=CC1=O [NEM, N-Ethylmaleimide]
- Activity (dpm/Test) (MEST T580B; 10 μg Protein/Test): −11 dpm/Test
- inhibition at 1000 µM (MEST T580B; 10 μg Protein/Test): 101%
- Activity (dpm/Test) (MEST T580B; 30 μg Protein/Test): 31 dpm/Test
- inhibition at 1000 µM (MEST T580B; 30 μg Protein/Test): 96%
- % Inhibition ([1]; 10 μg Protein/Test): 95%
- Activity (dpm/Test) ([1]; 10 μg Protein/Test): 6 dpm/Test
- % Inhibition ([1]; 30 μg Protein/Test): 107%
- Activity (dpm/Test) ([1]; 30 μg Protein/Test): −12 dpm/Test
- Inhibition of MEST activity (in words) (MEST T579B; 1 mM NEM for 1 h): completely
- Activity (dpm/Test) (MEST T579B; [9]): 49 dpm/Test
- inhibition at 1000 µM (MEST T579B; [9]): 90%
- Activity (dpm/Test) (MEST T579B; [10]): 53 dpm/Test
- inhibition at 1000 µM (MEST T579B; [10]): 94%
